Experimental findings from patent EP2651946B1, “2-SUBSTITUTED IMIDAZOPYRAZINES FOR USE AS MPS-1 AND TKK INHIBITORS IN THE TREATMENT OF HYPERPROLIFERATIVE DISORDERS” (Bayer Intellectual Property GmbH, priority 2010, dated 2012) are described below.

The target in this experiment is T1, human kinase Mps-1 (Homo sapiens, UniProt P33981).
T1 construct: N-terminally GST-tagged human full length recombinant Mps-1 kinase; purchased Invitrogen, Karslruhe, Germany PV4071
T1 sequence (P33981 1-857): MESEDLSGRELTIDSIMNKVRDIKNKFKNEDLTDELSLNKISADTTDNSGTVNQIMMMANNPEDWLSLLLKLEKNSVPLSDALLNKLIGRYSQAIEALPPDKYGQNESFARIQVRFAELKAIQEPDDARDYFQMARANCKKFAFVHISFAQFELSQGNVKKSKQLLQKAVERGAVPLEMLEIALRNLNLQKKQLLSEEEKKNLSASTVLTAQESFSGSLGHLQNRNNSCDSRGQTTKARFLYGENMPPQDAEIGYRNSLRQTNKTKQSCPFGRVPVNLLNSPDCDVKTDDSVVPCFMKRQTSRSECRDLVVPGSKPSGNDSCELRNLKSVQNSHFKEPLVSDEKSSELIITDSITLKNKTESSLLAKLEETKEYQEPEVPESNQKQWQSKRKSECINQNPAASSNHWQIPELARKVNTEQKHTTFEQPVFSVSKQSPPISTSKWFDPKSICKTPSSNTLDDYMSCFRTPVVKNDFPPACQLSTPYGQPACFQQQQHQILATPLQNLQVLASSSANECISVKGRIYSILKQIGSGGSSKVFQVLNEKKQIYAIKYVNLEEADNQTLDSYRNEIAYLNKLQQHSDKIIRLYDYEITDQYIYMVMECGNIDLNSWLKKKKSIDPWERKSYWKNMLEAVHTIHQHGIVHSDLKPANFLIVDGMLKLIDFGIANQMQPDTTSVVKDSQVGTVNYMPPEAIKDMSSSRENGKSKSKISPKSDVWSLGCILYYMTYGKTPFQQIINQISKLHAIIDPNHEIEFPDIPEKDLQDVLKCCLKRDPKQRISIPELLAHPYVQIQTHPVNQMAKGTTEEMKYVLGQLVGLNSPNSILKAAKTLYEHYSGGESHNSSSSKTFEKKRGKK
The experiment is described as follows: Mps-1 kinase assay (TR-FRET). In kind it is biochemical. The conditions noted are these: N-terminally GST-tagged human full length recombinant Mps-1; 10 µM ATP; 1 µM peptide substrate; 15 min pre-incubation, 60 min reaction at 22°C; read-out: Mps1 IC50. The protocol: The human kinase Mps-1 phosphorylates a biotinylated substrate peptide. Detection of the phosphorylated product is achieved by time-resolved fluorescence resonance energy transfer (TR-FRET) from Europium-labelled anti-phospho-Serine/Threonine antibody as donor to streptavidin labelled with cross-linked allophycocyanin (SA-XLent) as acceptor. Compounds are tested for their inhibition of the kinase activity.
N-terminally GST-tagged human full length recombinant Mps-1 kinase (purchased from Invitrogen, Karslruhe, Germany, cat. no PV4071) was used. As substrate for the kinase reaction a biotinylated peptide of the amino-acid sequence PWDPDDADITEILG (C-terminus in amide form, purchased from Biosynthan GmbH, Berlin) was used.
For the assay 50 nL of a 100-fold concentrated solution of the test compound in DMSO was pipetted into a black low volume 384well microtiter plate (Greiner Bio-One, Frickenhausen, Germany), 2 µl of a solution of Mps-1 in assay buffer [0.1 mM sodium-ortho-vanadate, 10 mM MgCl2, 2 mM DTT, 25 mM Hepes pH 7.7, 0.05% BSA, 0.001% Pluronic F-127] were added and the mixture was incubated for 15 min at 22°C to allow pre-binding of the test compounds to Mps-1 before the start of the kinase reaction. […]
The resulting mixture was incubated 1 h at 22°C to allow the binding of the phosphorylated peptide to the anti-phospho(Ser/Thr)-Europium-antibody. Subsequently the amount of phosphorylated substrate was evaluated by measurement of the resonance energy transfer from the Europium-labelled anti-phospho(Ser/Thr) antibody to the Streptavidin-XLent. Therefore, the fluorescence emissions at 620 nm and 665 nm after excitation at 350 nm was measured in a Viewlux TR-FRET reader (PerkinElmer LAS, Rodgau-Jugesheim, Germany). The "blank-corrected normalized ratio" ( a Viewlux specific readout, similar to the traditional ratio of the emissions at 665 nm and at 622 nm, in which blank and Eudonor crosstalk are subtracted from the 665 nm signal before the ratio is calculated) was taken as the measure for the amount of phosphorylated substrate. […]
For the compound `CC(C)CNc1nc(-c2ccccc2)cn2c(-c3ccc(C(=O)NC4CC4)cc3)c(N)nc12` [Example 4-1, 4-[2-Amino-8-(isobutylamino)-6-phenylimidazo[1,2-a]pyrazin-3-yl]-N-cyclopropylbenzamide], the half-inhibitory concentration (IC50) worked out at 16 nM. For `CC(C)CNc1nc(-c2ccccc2)cn2c(-c3ccc(C(=O)NC4CC4)cc3)c(CO)nc12` [Example 1-1, N-cyclopropyl-4-[2-(hydroxymethyl)-8-(isobutylamino)-6-phenylimidazo[1,2-a]pyrazin-3-yl]benzamide], the IC50 stood at 178 nM. As for `COC(=O)c1nc2c(NCC(C)C)nc(-c3ccccc3)cn2c1-c1ccc(C(=O)NC2CC2)cc1` [Example 3-1, Methyl 3-[4-(cyclopropylcarbamoyl)phenyl]-8-[(2-methylpropyl)amino]-6-phenylimidazo[1,2-a]pyrazine-2-carboxylate], the IC50 amounted to 4250 nM.
